Test results as given in patent US8927587B2, “Chemical compounds” (Pfizer Limited, priority 2012, dated 2015).

Molecular target: T1, hNav1.8 (Homo sapiens, UniProt Q9Y5Y9)
T1 construct: host or cells: HEK cells, stably transfected
Test: hNav1.8 whole-cell patch-clamp electrophysiology (conventional or PatchXpress 7000) in stably transfected HEK cells
Format: cell-based
Conditions: estimated IC50 calculated from single point % inhibition; HEK cells expressing hNav1.8; 8 sec prepulse to V1/2, 20 msec step to 0 mV; average of replicates; read-out: Nav1.8 EIC50
Summary of the method: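 Whole-cell voltage clamp at 22-24 °C in HEK cells stably expressing hNav1.8, manually or on PatchXpress. Current evoked by 20 msec step to 0 mV after 8 s prepulse to each cell's inactivation V1/2; single-concentration % inhibition converted to estimated IC50, using only 20-80% inhibition values, averaged over replicates.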

T1 sequence (Q9Y5Y9 whole entry): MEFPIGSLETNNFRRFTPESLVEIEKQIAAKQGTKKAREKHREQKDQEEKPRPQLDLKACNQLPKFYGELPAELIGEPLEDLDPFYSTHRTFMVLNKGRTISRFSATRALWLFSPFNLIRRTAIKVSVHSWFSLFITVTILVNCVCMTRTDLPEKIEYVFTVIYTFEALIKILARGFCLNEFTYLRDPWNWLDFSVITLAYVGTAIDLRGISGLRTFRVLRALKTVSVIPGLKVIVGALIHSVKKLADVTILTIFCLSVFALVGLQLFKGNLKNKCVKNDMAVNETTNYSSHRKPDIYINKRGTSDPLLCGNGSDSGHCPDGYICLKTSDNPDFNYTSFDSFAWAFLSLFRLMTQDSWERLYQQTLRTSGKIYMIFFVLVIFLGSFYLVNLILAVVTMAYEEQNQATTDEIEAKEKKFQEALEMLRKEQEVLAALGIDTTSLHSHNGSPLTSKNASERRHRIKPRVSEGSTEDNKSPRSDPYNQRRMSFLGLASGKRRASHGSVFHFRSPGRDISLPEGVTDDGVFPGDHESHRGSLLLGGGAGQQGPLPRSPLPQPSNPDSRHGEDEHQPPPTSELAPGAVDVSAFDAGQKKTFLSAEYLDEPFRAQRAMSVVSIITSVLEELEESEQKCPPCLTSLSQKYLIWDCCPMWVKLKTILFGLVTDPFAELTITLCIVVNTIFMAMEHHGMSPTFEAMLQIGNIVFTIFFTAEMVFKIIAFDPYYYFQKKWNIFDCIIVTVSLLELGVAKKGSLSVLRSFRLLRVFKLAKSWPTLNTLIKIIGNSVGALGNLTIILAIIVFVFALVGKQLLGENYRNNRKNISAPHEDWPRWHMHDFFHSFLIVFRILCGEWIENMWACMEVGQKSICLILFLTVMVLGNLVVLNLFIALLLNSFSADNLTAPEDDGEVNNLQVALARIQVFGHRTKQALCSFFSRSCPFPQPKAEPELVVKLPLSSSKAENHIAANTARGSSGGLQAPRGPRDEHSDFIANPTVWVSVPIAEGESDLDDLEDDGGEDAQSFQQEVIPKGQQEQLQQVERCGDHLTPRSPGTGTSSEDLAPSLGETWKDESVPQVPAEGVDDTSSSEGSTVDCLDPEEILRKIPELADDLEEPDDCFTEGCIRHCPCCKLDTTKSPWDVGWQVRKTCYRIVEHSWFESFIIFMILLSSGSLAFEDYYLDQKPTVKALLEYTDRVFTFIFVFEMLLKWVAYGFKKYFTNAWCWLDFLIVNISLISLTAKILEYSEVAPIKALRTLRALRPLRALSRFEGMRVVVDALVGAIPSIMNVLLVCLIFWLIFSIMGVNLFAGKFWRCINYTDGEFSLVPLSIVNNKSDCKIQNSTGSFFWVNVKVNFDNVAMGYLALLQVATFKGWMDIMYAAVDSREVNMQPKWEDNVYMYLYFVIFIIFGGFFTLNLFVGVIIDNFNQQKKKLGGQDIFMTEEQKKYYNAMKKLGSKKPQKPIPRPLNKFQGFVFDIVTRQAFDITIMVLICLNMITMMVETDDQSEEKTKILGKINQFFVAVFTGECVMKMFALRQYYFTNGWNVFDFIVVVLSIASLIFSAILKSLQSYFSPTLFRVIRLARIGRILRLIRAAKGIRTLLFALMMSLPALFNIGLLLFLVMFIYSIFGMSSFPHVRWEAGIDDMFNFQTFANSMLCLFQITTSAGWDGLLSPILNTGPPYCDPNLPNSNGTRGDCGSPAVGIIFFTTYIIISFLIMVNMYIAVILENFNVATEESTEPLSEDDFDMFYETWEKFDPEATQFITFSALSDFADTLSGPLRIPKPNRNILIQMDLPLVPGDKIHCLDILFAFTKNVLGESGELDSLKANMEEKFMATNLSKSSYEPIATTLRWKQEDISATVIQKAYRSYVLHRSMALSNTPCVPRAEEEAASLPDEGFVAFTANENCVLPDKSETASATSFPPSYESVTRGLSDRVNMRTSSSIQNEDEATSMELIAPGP

IC50 | Compound
190 nM | C[C@@H](C(N)=O)[C@H](N)c1nc2c(Cl)c(-c3ccc(C#N)cc3)ccc2[nH]1 [Example 111, (2R,3S)-3-Amino-3-[4-chloro-5-(4-cyanophenyl)-1H-benzimidazol-2-yl]-2-methylpropanamide]
187 nM | CC[C@H](N)c1nc2cc(CC(C)(C)C)ccc2[nH]1 [Example 112, (1S)-1-[5-(2,2-Dimethylpropyl)-1H-benzimidazol-2-yl]propan-1-amine]
749 nM | CC[C@H](N)c1nc2cc(C3CCC3)ccc2[nH]1 [Example 113, 1-(5-Cyclobutyl-1H-benzimidazol-2-yl)propylamine]
27.8 nM | N#Cc1ccc(-c2ccc3[nH]c(C4(N)Cc5ccccc5C4)nc3c2)cc1F [Example 114, 4-[2-(2-Amino-2,3-dihydro-1H-inden-2-yl)-1H-benzimidazol-5-yl]-2-fluorobenzonitrile]
278 nM | CC(C)(C)Cc1ccc2[nH]c(C(C)(N)CO)nc2c1 (stereo not drawn) [Example 115, 2-Amino-2-[6-(2,2-dimethylpropyl)-1H-benzimidazol-2-yl]propan-1-ol]
222 nM | CC(C)(C)Cc1ccc2[nH]c(C3(N)Cc4ccccc4C3)nc2c1 [Example 116, 2-[6-(2,2-Dimethylpropyl)-1H-benzimidazol-2-yl]-2,3-dihydro-1H-inden-2-amine]
2490 nM | N#Cc1ccc(-c2ccc3[nH]c([C@@H](N)CC(N)=O)nc3c2)cc1F [Example 117, (3S)-3-Amino-3-[5-(4-cyano-3-fluorophenyl)-1H-benzimidazol-2-yl]propanamide]
348 nM | CC(C)(C)Cc1ccc2[nH]c([C@@H](N)CC(N)=O)nc2c1 [Example 118, (3S)-3-Amino-3-[5-(2,2-dimethylpropyl)-1H-benzimidazol-2-yl]propanamide]
671 nM | N#Cc1ccc(-c2ccc3[nH]c([C@@H](N)CC(N)=O)nc3c2)c(Cl)c1 [Example 119, (3S)-3-Amino-3-[5-(2-chloro-4-cyanophenyl)-1H-benzimidazol-2-yl]propanamide]
88.5 nM | CO[C@H](C)[C@H](N)c1nc2c(Cl)c(-c3ccc(C#N)c(F)c3)ccc2[nH]1 [Example 120, 4-{2-[(1R,2R)-1-Amino-2-methoxypropyl]-4-chloro-1H-benzimidazol-5-yl}-2-fluorobenzonitrile]
3050 nM | C[C@@H](O)[C@H](N)c1nc2c(Cl)c(-c3ccc(C#N)c(F)c3)ccc2[nH]1 [Example 121, 4-{2-[(1R,2R)-1-Amino-2-hydroxypropyl]-4-chloro-1H-benzimidazol-5-yl}-2-fluorobenzonitrile]
326 nM | C[C@@H](O)[C@H](N)c1nc2cc(-c3ccc(C#N)cc3Cl)ccc2[nH]1 [Example 122, 4-{2-[(1R,2R)-1-Amino-2-hydroxypropyl]-1H-benzimidazol-6-yl}-3-chlorobenzonitrile]
1080 nM | CO[C@H](C)[C@H](N)c1nc2cc(C(C)C)ccc2[nH]1 [Example 123, (1R,2R)-2-Methoxy-1-[5-(propan-2-yl)-1H-benzimidazol-2-yl]propan-1-amine]
2220 nM | CC(C)c1ccc2[nH]c([C@@H](N)[C@H](O)C(C)C)nc2c1 [Example 125, (1R,2R)-1-Amino-3-methyl-1-[5-(propan-2-yl)-1H-benzimidazol-2-yl]butan-2-ol]
967 nM | CC[C@@H](O)[C@H](N)c1nc2cc(C(C)C)ccc2[nH]1 [Example 126, (1R,2R)-1-Amino-1-[5-(propan-2-yl)-1H-benzimidazol-2-yl]butan-2-ol]
2770 nM | CO[C@@H](C)[C@H](N)c1nc2cc(C(C)C)ccc2[nH]1 [Example 127, (1R,2S)-2-Methoxy-1-[5-(propan-2-yl)-1H-benzimidazol-2-yl]propan-1-amine]

IC50 | Compound
368 nM | CO[C@@H](C)[C@H](N)c1nc2cc(C(C)(C)C)ccc2[nH]1 [Example 128, (1R,2S)-1-(5-tert-Butyl-1H-benzimidazol-2-yl)-2-methoxypropan-1-amine]
510 nM | CC(C)(C)c1ccc2[nH]c([C@@H]3CCN3)nc2c1 [Example 129, 2-[(2S)-Azetidin-2-yl]-5-tert-butyl-1H-benzimidazole]
1340 nM | CC(C)(C)c1ccc2[nH]c([C@H]3CCN3)nc2c1 [Example 130, 2-[(2R)-Azetidin-2-yl]-5-tert-butyl-1H-benzimidazole]
394 nM | CC(C)(C)c1ccc2[nH]c([C@@H]3C[C@@H](F)CN3)nc2c1 [Example 131, 5-tert-Butyl-2-[(2S,4R)-4-fluoropyrrolidin-2-yl]-1H-benzimidazole]
191 nM | CC(C)(C)c1ccc2[nH]c([C@@H]3C[C@H](F)CN3)nc2c1 [Example 132, 5-tert-Butyl-2-[(2S,4S)-4-fluoropyrrolidin-2-yl]-1H-benzimidazole]
228 nM | CC(C)[C@@H](O)[C@H](N)c1nc2cc(C(C)(C)C)ccc2[nH]1 [Example 133, (1R,2R)-1-Amino-1-(5-tert-butyl-1H-benzimidazol-2-yl)-3-methylbutan-2-ol]
355 nM | CC(C)(C)c1ccc2[nH]c([C@H](N)CCO)nc2c1 [Example 134, (3R)-3-Amino-3-(5-tert-butyl-1H-benzimidazol-2-yl)propan-1-ol]
1000 nM | CC(C)(C)c1ccc2[nH]c([C@H](N)CCCO)nc2c1 [Example 135, (4R)-4-Amino-4-(5-tert-butyl-1H-benzimidazol-2-yl)butan-1-ol]
508 nM | CC(C)(C)c1ccc2[nH]c([C@H]3NCC[C@H]3O)nc2c1 [Example 136, (2R,3R)-2-(5-tert-Butyl-1H-benzimidazol-2-yl)pyrrolidin-3-ol]
915 nM | C[C@@H](O)[C@@H](N)c1nc2cc(-c3ccc(C#N)cc3)ccc2[nH]1 [Example 137, 4-{2-[(1S,2R)-1-Amino-2-hydroxypropyl]-1H-benzimidazol-5-yl}benzonitrile]
486 nM | C[C@H](O)[C@H](N)c1nc2cc(-c3ccc(C#N)cc3)ccc2[nH]1 [Example 138, 4-{2-[(1R,2S)-1-Amino-2-hydroxypropyl]-1H-benzimidazol-5-yl}benzonitrile]
43.5 nM | CC[C@@H](O)[C@H](N)c1nc2cc(C(C)(C)C)ccc2[nH]1 [Example 139, (1R,2R)-1-Amino-1-(5-tert-butyl-1H-benzimidazol-2-yl)butan-2-ol]
223 nM | CC(C)(C)c1ccc2[nH]c([C@@H](N)CCCO)nc2c1 [Example 140, (4S)-4-Amino-4(5-tert-butyl-1H-benzimidazol-2-yl)butan-1-ol]
797 nM | CC(C)(C)c1ccc2[nH]c([C@@H](N)C(C)(C)C(N)=O)nc2c1 [Example 141, (3S)-3-Amino-3-(5-tert-butyl-1H-benzimidazol-2-yl)-2,2-dimethylpropanamide]
1840 nM | COC(C)(C)C(N)c1nc2cc(-c3ccc(C#N)cc3)ccc2[nH]1 (stereo not drawn) [Example 142, 4-[2-(1-Amino-2-methoxy-2-methylpropyl)-1H-benzimidazol-5-yl]benzonitrile]
41.3 nM | CC[C@@H](C(N)=O)[C@H](N)c1nc2cc(C(C)(C)C)ccc2[nH]1 [Example 144, (R)-2-((S)-Amino-(6-(tert-butyl)-1H-benzo[d]imidazol-2-yl)methyl)butanamide]

Compound | IC50
CC(C)(C)c1ccc2[nH]c([C@@H](N)COC(N)=O)nc2c1 [Example 143, (R)-2-Amino-2-(5-(tert-butyl)-1H-benzo[d]imidazol-2-yl)ethyl carbamate] | 85.2 nM
